Data as given in patent US7445765B2, “Radiopharmaceutical for diagnostic imaging containing a technetium-99m nitride heterocomplex” (Nihon Medi-Physics Co., Ltd., priority 2000, dated 2008).

Experiments:
[1] = Biodistribution of the 99mTc(N) heterocomplexes in rats (organ uptake, heart accumulation, heart/lung and heart/liver ratios); format: in vivo, female Sprague-Dawley rats
Protocol: The biodistribution was measured by using female Sprague-Dawley rats (SD rats) weighing 200 g to 250 g. Each of the ^99mTc(N) heterocomplexes purified in the manner described above was diluted with phosphate buffer (0.1 M, pH=7.4) to obtain a final solution having an ethanol content of 10%. After the SD rats were anesthetized with an intramuscular injection of a mixture of ketamine (80 mg/kg) and xilazine (19 mg/kg), the jugular vein of each rat was surgically exposed and 100 μL (300 to 370 kBq) of the solution containing each ^99mTc(N) heterocomplexes prepared in the manner described above was injected in the jugular vein. The rats (n=3) were sacrificed by cervical dislocation at different times post injection. The blood was withdrawn from the heart through a syringe and counted. It was assumed that the whole blood content was 6.5% of the total body weight. The organs were excised from the rats, washed with physiological saline, weighed, and counted in a NaI well counter.
For comparison, Tables 19 and 20 show the results, obtained in the same manner as above, of measuring the biodistribution of (^99mTc) (MIBI) and (^99mTc) (Tf) which have been used as pharmaceuticals for diagnostic imaging for blood flow in myocardium.
Tables 21 to 23 show data showing the variations with time of heart accumulation, heart/lung ratios and heart/liver ratios for the ^99mTc(N) heterocomplexes of the present invention.

[2] = Stability: ligand exchange reaction with cysteine or glutathione; format: physicochemical; conditions: phosphate buffer pH 7.4, 37° C., up to 2 hours, TLC
Protocol: The stability of the ^99mTc(N) heterocomplexes obtained using PNP3 as a bisphosphinoamine compound in Example 1 was confirmed by ligand exchange reaction with cysteine or glutathione.
250.0 μL of phosphate buffer solution (0.20 M, pH=7.4), 100 μL of water and 100 μL of each of the ^99mTc(N) heterocomplexes purified were mixed with 50 μL of each of cysteine solutions having different concentrations of 10 mM and 1.0 mM, and the resulting mixture was placed in a polypropylene test tube and incubated in a thermostat at 37° C. A blank solution was obtained by mixing an equal volume of water without addition of cysteine. Aliquots of the resulting solutions were withdrawn at 15 min, 30 min, 60 min and 2 hours after the start of the incubation, and analyzed by TLC. The same experiment as above was carried out except for using glutathione in place of cysteine. All the ^99mTc(N) heterocomplex samples were found stable against transchelation by cystein or glutathione.

[3] = Measurement of Log k′ (partition ratio) by HPLC, PNP3 heterocomplexes; format: physicochemical; conditions: HPLC C18, methanol/phosphate buffer (0.02M, pH 7.4), 1.0 mL/min; extrapolated to 0% organic solvent
Protocol: For the various ^99mTc(N) heterocomplexes synthesized using PNP3 as a bisphosphinoamine compound in Example 1, Log k′ values were determined at various compositions of a mobile phase for HPLC. As the mobile phase, mixtures of methanol and phosphate buffer (0.02M, pH=7.4) were used at a flow rate of 1.0 mL/min. For each sample, the retention time was measured at a minimum of three different methanol concentrations in the mobile phase. The Log k′ values at 0% organic solvent (Log k′0) were extrapolated from the linear part of the curve Log k′=a+bC, where C is the methanol concentration, and Log k′ is Log (tR-to)/to wherein tR is HPLC retension time (min). The column void time (t0) was regarded as being equal to the elution time of pertechnetic acid.

CCOCCN(CCOCC)C1=[S][99Tc+]2(#[N])([S]1)[P](CCCOC)(CCCOC)CCN(CCOC)CC[P]2(CCCOC)CCCOC [[^99mTc(N) (PNP3) (DBODC)]^+]
Biodistribution in rats: Adrenal glands ([1]; 0 min post injection): 2.68 ± 0.44 % ID/g | Biodistribution in rats: Blood ([1]; 0 min post injection): 0.55 ± 0.32 % ID/g | Biodistribution in rats: Brain ([1]; 0 min post injection): 0.23 ± 0.04 % ID/g | Biodistribution in rats: Heart ([1]; 0 min post injection): 3.57 ± 0.14 % ID/g | Biodistribution in rats: Intestine ([1]; 0 min post injection): 2.43 ± 0.49 % ID/g | Biodistribution in rats: Kidneys ([1]; 0 min post injection): 10.40 ± 2.16 % ID/g | Biodistribution in rats: Liver ([1]; 0 min post injection): 1.46 ± 0.05 % ID/g | Biodistribution in rats: Lungs ([1]; 0 min post injection): 1.54 ± 0.03 % ID/g | Biodistribution in rats: Muscle ([1]; 0 min post injection): 0.23 ± 0.04 % ID/g | Biodistribution in rats: Spleen ([1]; 0 min post injection): 1.84 ± 0.49 % ID/g | Biodistribution in rats: Submaxillary glands ([1]; 0 min post injection): 1.25 ± 0.47 % ID/g | Biodistribution in rats: Adrenal glands ([1]; 2 min post injection): 2.87 ± 1.00 % ID/g | Biodistribution in rats: Blood ([1]; 2 min post injection): 0.11 ± 0.01 % ID/g | Biodistribution in rats: Brain ([1]; 2 min post injection): 0.03 ± 0.00 % ID/g | Biodistribution in rats: Heart ([1]; 2 min post injection): 3.42 ± 0.19 % ID/g | Biodistribution in rats: Intestine ([1]; 2 min post injection): 7.42 ± 1.03 % ID/g | Biodistribution in rats: Kidneys ([1]; 2 min post injection): 11.57 ± 2.37 % ID/g | Biodistribution in rats: Liver ([1]; 2 min post injection): 1.72 ± 0.26 % ID/g | Biodistribution in rats: Lungs ([1]; 2 min post injection): 1.01 ± 0.49 % ID/g | Biodistribution in rats: Muscle ([1]; 2 min post injection): 0.23 ± 0.01 % ID/g | Biodistribution in rats: Spleen ([1]; 2 min post injection): 2.00 ± 0.07 % ID/g | Biodistribution in rats: Submaxillary glands ([1]; 2 min post injection): 1.27 ± 0.05 % ID/g | Biodistribution in rats: Adrenal glands ([1]; 10 min post injection): 2.30 ± 0.73 % ID/g | Biodistribution in rats: Blood ([1]; 10 min post injection): 0.03 ± 0.00 % ID/g | Biodistribution in rats: Brain ([1]; 10 min post injection): 0.02 ± 0.00 % ID/g | Biodistribution in rats: Heart ([1]; 10 min post injection): 3.65 ± 0.56 % ID/g | Biodistribution in rats: Intestine ([1]; 10 min post injection): 12.11 ± 2.92 % ID/g | Biodistribution in rats: Kidneys ([1]; 10 min post injection): 6.74 ± 0.63 % ID/g | Biodistribution in rats: Liver ([1]; 10 min post injection): 1.43 ± 0.47 % ID/g | Biodistribution in rats: Lungs ([1]; 10 min post injection): 0.77 ± 0.10 % ID/g | Biodistribution in rats: Muscle ([1]; 10 min post injection): 0.23 ± 0.07 % ID/g | Biodistribution in rats: Spleen ([1]; 10 min post injection): 1.28 ± 0.12 % ID/g | Biodistribution in rats: Submaxillary glands ([1]; 10 min post injection): 1.42 ± 0.24 % ID/g | Biodistribution in rats: Adrenal glands ([1]; 20 min post injection): 2.69 ± 0.37 % ID/g | Biodistribution in rats: Blood ([1]; 20 min post injection): 0.02 ± 0.01 % ID/g | Biodistribution in rats: Brain ([1]; 20 min post injection): 0.02 ± 0.01 % ID/g | Biodistribution in rats: Heart ([1]; 20 min post injection): 3.32 ± 0.18 % ID/g | Biodistribution in rats: Intestine ([1]; 20 min post injection): 13.03 ± 3.19 % ID/g | Biodistribution in rats: Kidneys ([1]; 20 min post injection): 6.12 ± 0.11 % ID/g | Biodistribution in rats: Liver ([1]; 20 min post injection): 0.87 ± 0.52 % ID/g | Biodistribution in rats: Lungs ([1]; 20 min post injection): 0.84 ± 0.06 % ID/g | Biodistribution in rats: Muscle ([1]; 20 min post injection): 0.13 ± 0.02 % ID/g | Biodistribution in rats: Spleen ([1]; 20 min post injection): 0.92 ± 0.10 % ID/g | Biodistribution in rats: Submaxillary glands ([1]; 20 min post injection): 1.32 ± 0.21 % ID/g | Biodistribution in rats: Adrenal glands ([1]; 30 min post injection): 2.94 ± 0.18 % ID/g | Biodistribution in rats: Blood ([1]; 30 min post injection): 0.02 ± 0.00 % ID/g | Biodistribution in rats: Brain ([1]; 30 min post injection): 0.02 ± 0.02 % ID/g | Biodistribution in rats: Heart ([1]; 30 min post injection): 3.27 ± 0.36 % ID/g | Biodistribution in rats: Intestine ([1]; 30 min post injection): 13.41 ± 4.62 % ID/g | Biodistribution in rats: Kidneys ([1]; 30 min post injection): 5.67 ± 0.39 % ID/g | Biodistribution in rats: Liver ([1]; 30 min post injection): 0.42 ± 0.01 % ID/g | Biodistribution in rats: Lungs ([1]; 30 min post injection): 0.69 ± 0.12 % ID/g | Biodistribution in rats: Muscle ([1]; 30 min post injection): 0.24 ± 0.08 % ID/g | Biodistribution in rats: Spleen ([1]; 30 min post injection): 0.95 ± 0.02 % ID/g | Biodistribution in rats: Submaxillary glands ([1]; 30 min post injection): 1.49 ± 0.22 % ID/g | Biodistribution in rats: Adrenal glands ([1]; 60 min post injection): 2.17 ± 0.35 % ID/g | Biodistribution in rats: Blood ([1]; 60 min post injection): 0.01 ± 0.00 % ID/g | Biodistribution in rats: Brain ([1]; 60 min post injection): 0.01 ± 0.00 % ID/g | Biodistribution in rats: Heart ([1]; 60 min post injection): 3.27 ± 0.62 % ID/g | Biodistribution in rats: Intestine ([1]; 60 min post injection): 4.39 ± 2.86 % ID/g | Biodistribution in rats: Kidneys ([1]; 60 min post injection): 4.24 ± 0.53 % ID/g | Biodistribution in rats: Liver ([1]; 60 min post injection): 0.16 ± 0.05 % ID/g | Biodistribution in rats: Lungs ([1]; 60 min post injection): 0.34 ± 0.11 % ID/g | Biodistribution in rats: Muscle ([1]; 60 min post injection): 0.17 ± 0.01 % ID/g | Biodistribution in rats: Spleen ([1]; 60 min post injection): 0.42 ± 0.11 % ID/g | Biodistribution in rats: Submaxillary glands ([1]; 60 min post injection): 1.29 ± 0.28 % ID/g | Biodistribution in rats: Adrenal glands ([1]; 120 min post injection): 2.53 ± 0.27 % ID/g | Biodistribution in rats: Blood ([1]; 120 min post injection): 0.01 ± 0.00 % ID/g | Biodistribution in rats: Brain ([1]; 120 min post injection): 0.01 ± 0.00 % ID/g | Biodistribution in rats: Heart ([1]; 120 min post injection): 3.00 ± 0.42 % ID/g | Biodistribution in rats: Intestine ([1]; 120 min post injection): 7.03 ± 2.61 % ID/g | Biodistribution in rats: Kidneys ([1]; 120 min post injection): 3.48 ± 0.61 % ID/g | Biodistribution in rats: Liver ([1]; 120 min post injection): 0.12 ± 0.03 % ID/g | Biodistribution in rats: Lungs ([1]; 120 min post injection): 0.27 ± 0.05 % ID/g | Biodistribution in rats: Muscle ([1]; 120 min post injection): 0.36 ± 0.15 % ID/g | Biodistribution in rats: Spleen ([1]; 120 min post injection): 0.21 ± 0.03 % ID/g | Biodistribution in rats: Submaxillary glands ([1]; 120 min post injection): 1.59 ± 0.19 % ID/g | Stability [2]: Stable | Log k′ (partition ratio) [3]: 3.82
